Where two headings read alike, the source gives them in different places. *1 amine or outer side, *2 acyl side, *3 side chain or, on linkers, in order; H or OH if unused. Where no end group is shown, it is not given here. Side-chain parts run from the residue outwards. The star is where a group is joined. C18 diacid = O=C(O)CCCCCCCCCCCCCCCCC(=O)*; γGlu = O=C(O)[C@H](CCC(=O)[*:2])N[*:1]; AEEA = NCCOCCOCC(=O)O
Columns and labels:
trypsin = target: T1, trypsin (Bos taurus, UniProt P00760); assay: Trypsin degradation experiments; format: in vitro ADME
T1 construct: purchased Sigma T8003
T1 sequence (P00760 24-246): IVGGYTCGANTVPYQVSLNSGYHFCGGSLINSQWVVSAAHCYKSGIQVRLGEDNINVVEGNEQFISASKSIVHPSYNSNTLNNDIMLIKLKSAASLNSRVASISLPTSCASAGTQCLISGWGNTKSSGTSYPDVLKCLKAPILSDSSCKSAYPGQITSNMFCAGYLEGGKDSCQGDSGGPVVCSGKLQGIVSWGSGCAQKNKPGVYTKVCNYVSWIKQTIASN
Experimental: Pepsin (3200-4500 U/mg protein, from Sigma, catalog number: P6887), trypsin (approximately […] protein, from Sigma, catalog number: T8003).
B: Reaction buffer of trypsin: three 20 mM citric acid-phosphate buffers with different pH (4.0, 6.8, and 8.0) are prepared, then adding 0.005% Tween 20 and 0.001% BSA to prepare a reaction buffer of trypsin.
D: Simulated intestinal fluid containing trypsin (SIF): obtained by taking 0.0684 g of potassium dihydrogen phosphate, adding 2.5 ml of water to dissolve it, adding 0.77 ml of 0.2M sodium hydroxide solution and 5 ml of water, and then adding and dissolving 0.1001 g of trypsin; the pH is measured as 6.82, then diluting by adding water to 10 ml.
An appropriate amount of the stock solution of the test sample is taken respectively, then diluting it to 0.06 mg/ml with reaction buffers of trypsin with different pH; each group of reaction solution is divided into 1 ml/tube, a total of 7 tubes, then mixing well and incubating in a 37° C. water bath for 30 min. […]
HPLC assay is performed with samples from the enzyme degradation experiment. The peak area of the main peak of the sample without enzyme reaction at 0 point (recorded as −5 min) is used as the basal peak area, and the remaining percentage of the peak area of the main peak at different time points after enzyme addition is calculated.

RIN-m5F cells = assay: In vitro activity determination in RIN-m5F cells (cAMP assay kit); format: cell-based
Experimental: RIN-m5F cells with good culturing status are selected. Cells are then collected, counted, and prepared into a cell suspension of 1×10^5 cells/ml with RPMI1640 basal medium. The cell suspension is inoculated in a 96-well cell culture plate, 100 μl per well, then incubating overnight at 37° C. and 5% CO2.
The prepared cell plate is taken out, then discarding the medium, and blotting it dry on the filter paper. The sample solutions are transferred correspondingly into the cell plate, 40 μl/well; treating with the lid open for 15 min at 37° C. and 5% CO2. The cell culture plate is taken out from the incubator, then adding 10 μl of CD solution (cAMP assay kit, Promega) to each well, keeping the cell plate at 22-25° C., and shaking horizontally at 500 rpm for 20 min. 50 μl of KG solution (cAMP assay kit, Promega) is added to each well, then shaking horizontally at 22° C.-25° C., 500 rpm and avoiding light for 10 min. The chemiluminescence value is read by using the Molecular Devices SpectraMax L chemiluminescence apparatus, completing the measurement in 30 min. EC50 of a sample is calculated by using the four-parameter regression in softmax Pro software.

CD-1 mice = format: in vivo; details: 0.15 mg/kg s.c.; for Inhibition rate (blood glucose): Table 5 (second experiment), CD-1 mice; for glucose-lowing effects (comparison in words, Tables 4 and 5): normal mice
Experimental: Twenty-eight healthy female CD-1 mice aged 4-6 weeks are selected and divided into 4 groups, and they are injected subcutaneously with M4, M5, M7 and M0 at a dose of 0.15 mg/kg body weight.

ICR mice = format: in vivo; design: G-AUC: unit not given here
Experimental: 20% glucose is intragastrically administered every day according to the time schedule of 4 h, 1 d, 2 d, 3 d, 4 d, and 5 d, at a dose of 2 g/kg body weight, and fasting for 6 hours before administering the glucose; and blood is respectively collected from the tip of the tail at 0 h, 0.5 h, 1 h and 2 h after giving the 20% glucose, then measuring the blood glucose value in real time by using Roche blood glucose test paper.

Compound	in vitro activities (comparison in words) (RIN-m5F cells)	Inhibition rate (blood glucose) (CD-1 mice; 6 h) [%]	Inhibition rate (blood glucose) (CD-1 mice; 30 h) [%]	Inhibition rate (blood glucose) (CD-1 mice; 54 h) [%]	Inhibition rate (blood glucose) (CD-1 mice; 78 h) [%]	Inhibition rate (blood glucose) (CD-1 mice; 102 h) [%]	glucose-lowing effects (comparison in words, Tables 4 and 5) (CD-1 mice)	G-AUC (ICR mice; 0 h (before administration))	G-AUC (ICR mice; 0.15 mg/kg s.c. single, 4 h)	Inhibition rate (blood glucose) (ICR mice; 0.15 mg/kg s.c. single, 4 h) [%]	G-AUC (ICR mice; 0.15 mg/kg s.c. single, 1 d)	Inhibition rate (blood glucose) (ICR mice; 0.15 mg/kg s.c. single, 1 d) [%]	G-AUC (ICR mice; 0.15 mg/kg s.c. single, 2 d)	Inhibition rate (blood glucose) (ICR mice; 0.15 mg/kg s.c. single, 2 d) [%]	G-AUC (ICR mice; 0.15 mg/kg s.c. single, 3 d)	Inhibition rate (blood glucose) (ICR mice; 0.15 mg/kg s.c. single, 3 d) [%]	G-AUC (ICR mice; 0.15 mg/kg s.c. single, 4 d)	Inhibition rate (blood glucose) (ICR mice; 0.15 mg/kg s.c. single, 4 d) [%]	G-AUC (ICR mice; 0.15 mg/kg s.c. single, 5 d)	Inhibition rate (blood glucose) (ICR mice; 0.15 mg/kg s.c. single, 5 d) [%]	further results
CC[C@H](C)[C@H](NC(=O)[C@H](Cc1ccccc1)NC(=O)[C@H](CCC(=O)O)NC(=O)[C@H](CCCCNC(=O)COCCOCCNC(=O)COCCOCCNC(=O)CC[C@H](NC(=O)CCCCCCCCCCCCCCCCC(=O)O)C(=O)O)NC(=O)[C@H](C)NC(=O)[C@H](C)NC(=O)[C@H](CCC(N)=O)NC(=O)CNC(=O)[C@H](CCC(=O)O)NC(=O)[C@H](CC(C)C)NC(=O)[C@H](Cc1ccc(O)cc1)NC(=O)[C@H](CO)NC(=O)[C@H](CO)NC(=O)[C@@H](NC(=O)[C@H](CC(=O)O)NC(=O)[C@H](CO)NC(=O)[C@@H](NC(=O)[C@H](Cc1ccccc1)NC(=O)[C@@H](NC(=O)CNC(=O)[C@H](CCC(=O)O)NC(=O)C(C)(C)NC(=O)[C@@H](N)Cc1cnc[nH]1)[C@@H](C)O)[C@@H](C)O)C(C)C)C(=O)N[C@@H](C)C(=O)N[C@@H](Cc1c[nH]c2ccccc12)C(=O)N[C@@H](CC(C)C)C(=O)N[C@H](C(=O)N[C@@H](CCCNC(=N)N)C(=O)NCC(=O)N[C@@H](CCCNC(=N)N)C(=O)NCC(=O)O)C(C)C [Semaglutide, N-ε^26-[2-(2-[2-(2-[2-(2[4-(17-carboxyheptadecanoylamino)-4(s)-carboxybutyrylamino]ethoxy)ethoxy]acetylamino)ethoxy]ethoxy)acetyl][Aib^8, Arg^34]GLP-1-(7-37) peptide]																					ability against trypsin degradation (in words) (trypsin; pH4.0): show the ability against trypsin degradation; degradation rate by trypsin (in words) (trypsin; pH6.8 and 8.0, n=4, FIG. 6): basically the same
N-ε^34-[2-(2-[2-(2-[2-(2-[4-(17-carboxyheptadecanoylamino)-4(s)-carboxybutyrylamino]ethoxy)ethoxy]acetylamino)ethoxy]ethoxy)acetyl](Val^8Glu^22 Arg^26Lys^34-GLP-1(7-37)) peptide (HVEGTFTSDVSSYLEEQAAREFIAWLVK([AEEA-AEEA-γGlu-C18 diacid])GRG) [M5]	comparable	29.59	39.47	30.11	27.07	15.38	comparable	16.3 ± 2.5	11.5 ± 1.0	29.59	9.9 ± 0.7	39.47	11.4 ± 1.3	30.11	11.9 ± 2.0	27.07	13.8 ± 1.9	15.38	14.4 ± 2.2	11.66	
N-ε^37-[2-(2-[2-(2-[2-(2-[4-(17-carboxyheptadecanoylamino)-4(s)-carboxybutyrylamino]ethoxy)ethoxy]acetylamino)ethoxy]ethoxy)acetyl](Val^8Glu^22Arg^26,34Lys^37-GLP-1 (7-37)) peptide (HVEGTFTSDVSSYLEEQAAREFIAWLVRGRK([AEEA-AEEA-γGlu-C18 diacid])) [M7]	comparable	27.22	38.82	22.56	22.48	11.60	comparable	16.3 ± 2.7	11.8 ± 1.4	27.22	10.0 ± 1.6	38.82	12.6 ± 1.5	22.56	12.6 ± 0.7	22.48	14.4 ± 1.1	11.60	15.2 ± 1.0	6.76	

Source: patent publication US12508300B2, “Acylated GLP-1 derivative” (Sciwind Biosciences Co., Ltd., priority 2019, dated 2025)
